Assay results as given in patent US20090155784A1, “ASSESSMENT OF ASTHMA AND ALLERGEN-DEPENDENT GENE EXPRESSION” (Wyeth, priority 2007, published 2009).

Experiments:
Assay type in all cases: cell-based, human
[1] = test system: PBMCs from asthma subjects; test: HG-U133A baseline gene expression in PBMCs of asthma subjects (AOS), cPLA2 inhibitor in the absence of allergen (no AG)
Text: PBMCs were stimulated in vitro with a cocktail containing 4 different allergens from house dust mite, ragweed and cat. Recombinant allergens, Der p1, Der f2, Fel d1 (Indoor Biotech, Charlottesville, Va.) and natural ragweed allergen (Allergy Lab, Seattle, Wash.) were selected and screened for endotoxin contamination (LAL Endotoxin Test, Catalog #HIT302, sensitivity, 0.0001 Eu/ml, Cell Sciences, Canton, Mass.). The sensitivity of the subjects was unknown but the allergens were chosen based on the estimate that 80% of allergic individuals are believed to react to one or more of these allergens. Culture medium contained RPMI-1640 (Sigma) with 10% heat inactivated FCS (Sigma St. Louis, Mo.) and 100 unit/mL Penicillin and […] Streptomycin and 0.292 mg/mL Glutamine (GIBCO RL Invitrogen, Carlsbad, Calif.). The final allergen cocktail concentrations in culture medium were: Der p1 and Der f2 (dust mite), 1 mg/ml; Fel d1 (cat), 1.25 mg/ml; ragweed, 125 mg/ml. […]
RNA was purified using QIA shredders and Rneasy mini kits (Qiagen, Valencia, Calif.). […] Eluted RNA was quantified using a Spectramax96 well plate UV reader (Molecular Devices, Sunnyvale, Calif., USA) monitoring A260/280 OD values. The quality of each RNA sample was assessed by capillary electrophoresis alongside an RNA molecular weight ladder on the Agilent 2100 bioanalyzer (Agilent Technologies, Palo Alto, Calif., USA). […]

[2] = test system: PBMCs from asthma subjects; test: HG-U133A transcriptional profiling of allergen-stimulated PBMCs of asthma subjects (AOS), with and without cPLA2 inhibitor, 6 days culture; clustering and Ingenuity pathway analysis
Text: (§1) PBMCs were stimulated in vitro with a cocktail containing 4 different allergens from house dust mite, ragweed and cat. Recombinant allergens, Der p1, Der f2, Fel d1 (Indoor Biotech, Charlottesville, Va.) and natural ragweed allergen (Allergy Lab, Seattle, Wash.) were selected and screened for endotoxin contamination (LAL Endotoxin Test, Catalog #HIT302, sensitivity, 0.0001 Eu/ml, Cell Sciences, Canton, Mass.). The sensitivity of the subjects was unknown but the allergens were chosen based on the estimate that 80% of allergic individuals are believed to react to one or more of these allergens. Culture medium contained RPMI-1640 (Sigma) with 10% heat inactivated FCS (Sigma St. Louis, Mo.) and 100 unit/mL Penicillin and […] Streptomycin and 0.292 mg/mL Glutamine (GIBCO RL Invitrogen, Carlsbad, Calif.). The final allergen cocktail concentrations in culture medium were: Der p1 and Der f2 (dust mite), 1 mg/ml; Fel d1 (cat), 1.25 mg/ml; ragweed, 125 mg/ml. The total level of endotoxin contamination in culture medium was 0.057 Eu/ml. The cPLA2 inhibitor 4-{3-[1-benzhydryl-5-chloro-2-(2-{[(2,6-dimethylbenzyl)sulfonyl]amino}ethyl)-1H-indol-3-yl]propyl}benzoic acid was used at a concentration of 0.3 μM/ml. Zileuton, a 5-lipoxygenase inhibitor, was added at a concentration of 5 μM. The inhibitory activity of both the cPLA2 inhibitor and Zileuton samples were verified in a human whole blood assay. After 6 days in culture approximately 200 μL of supernatant was removed using an 8-channel pipettor without disturbing the cell pellet and placed into a collection plate for cytokine ELISA assays. To the remaining cell pellet 100 μL of RLT lysis buffer containing 1% beta-mercaptoethanol was added and snap frozen for RNA purification.
(§2) RNA was purified using QIA shredders and Rneasy mini kits (Qiagen, Valencia, Calif.). PBMC pellets frozen in RLT lysis buffer containing 1% β-mercaptoethanol were thawed and processed for total RNA isolation using the QIA shredder and RNeasy mini kit. A phenol:chloroform extraction was then performed, and the RNA was repurified using the RNeasy mini kit reagents. Eluted RNA was quantified using a Spectramax96 well plate UV reader (Molecular Devices, Sunnyvale, Calif., USA) monitoring A260/280 OD values. The quality of each RNA sample was assessed by capillary electrophoresis alongside an RNA molecular weight ladder on the Agilent 2100 bioanalyzer (Agilent Technologies, Palo Alto, Calif., USA). RNA samples were assigned quality values of intact (distinct 18S and 28S bands); partially degraded (discernible 18S and 28S bands with presence of low molecular weight bands) or completely degraded (no discernible 18S and 28S bands).
(§3) Labeled targets for oligonucleotide arrays were prepared using a modification of the procedure described by Lockhart et al. (Lockhart (1996) Nat. Biotechnol. 14:1675-80). Labeled targets were hybridized to the HG-U133A Affymetrix GeneChip Array as described in the Affymetrix technical manual. Eleven biotinylated control transcripts ranging in abundance from 3 parts per million (ppm) to 100 ppm were spiked into each sample to function as a standard curve (Hill (2001) Genome Biol. 2:RESEARCH0055). GeneChip MAS 5.0 software was used to evaluate the hybridization intensity, compute the signal value for each probe set and make an absent/present call.
(§4) GeneChips were required to pass the pre-set quality control criteria that the RNA quality metric required a 5′:3′ ratio. Two asthma subjects were excluded from the study due to failure to meet the RNA quality metric and 2 GeneChips from the group treated with cPLA2a inhibitor were excluded for the same reason. The signal value for each probe set was converted into a frequency value representative of the number of transcripts present in 10^6 transcripts by reference to the standard curve (Hill (2001) Genome Biol. 2:RESEARCH0055). […]

[3] = test system: PBMCs from healthy volunteers; test: HG-U133A transcriptional profiling of allergen-stimulated PBMCs of healthy volunteers (HV/WHV), with and without cPLA2 inhibitor, 6 days culture
Text: as §1, §2, §3, §4

[4] = gene C10ORF3, probeset 218542_at
[5] = gene CHIT1, probeset 208168_s_at
[6] = gene DAB2, probeset 201279_s_at
[7] = gene DAB2, probeset 210757_x_at
[8] = gene DUSP4, probeset 204015_s_at
[9] = gene FABP3, probeset 205738_s_at
[10] = gene FLJ23311, probeset 219990_at
[11] = gene HS3ST2, probeset 219697_at
[12] = gene PAPSS2, probeset 203060_s_at
[13] = gene PLEKHB2, probeset 201411_s_at
[14] = gene RACGAP1, probeset 222077_s_at
[15] = gene RUVBL1, probeset 201614_s_at
[16] = gene SLC36A1, probeset 213119_at
[17] = gene SLC38A6, probeset 214830_at
[18] = gene SLC39A14, probeset 212110_at
[19] = gene SLCO2B1, probeset 203472_s_at
[20] = gene SLCO2B1, probeset 203473_at
[21] = gene SMC2L1, probeset 204240_s_at
[22] = gene TRIP13, probeset 204033_at
[23] = gene UNK_AI859865, probeset 222036_s_at
[24] = gene UNK_BE966236, probeset 201890_at

Cc1cccc(C)c1CS(=O)(=O)NCCc1c(CCCc2ccc(C(=O)O)cc2)c2cc(Cl)ccc2n1C(c1ccccc1)c1ccccc1 [cPLA2 inhibitor, 4-{3-[1-benzhydryl-5-chloro-2-(2-{[(2,6-dimethylbenzyl)sulfonyl]amino}ethyl)-1H-indol-3-yl]propyl}benzoic acid] was tested, and the “effect on gene expression in the absence of allergen stimulation, asthmatic population” value [1] was “does not affect gene expression”, the “all T cell responsive and cell cycle genes in the pathway (Network 1, FIG. 3A/3C)” value ([2]; allergen + inhibitor) was “significantly changed towards the levels in the healthy subject group” and the “allergen-induced increase in expression of T cell genes ZAP70, CD28, CD3D” value ([2]; allergen + inhibitor) was “abolished”. The “genes initially down regulated in asthma samples in the presence of allergen, such as sialoadhesin (SN), CD84, TIMP3” value ([2]; allergen + inhibitor) was “up-regulated in the presence of inhibition”, the “genes up-regulated in asthma samples in response to allergen, such as ZAP70, LCK, MCM2” value ([2]; allergen + inhibitor) was “reduced to the levels seen in the allergen treated healthy controls” and the “other immune related genes: CD28, CD3D, IL-21R, HMGB1” value ([2]; allergen + inhibitor) was “downregulated”. For the same compound, the “every single probe in Network 1 in the asthmatic population” value ([2]; allergen + inhibitor, FIG. 3C) was “altered level of expression”, the “asthma specific gene expression (167 allergen-asthma specific probesets) in the presence of the inhibitor” value ([2]; compared to the allergen treatment alone, 0.3 μM/ml) was “altered” and the “Fold Change AOS Allergen vs. cPLA2 inhibitor” value [2, 4] was −1.255. For the same compound, the “Fold Change AOS Allergen vs. cPLA2 inhibitor” value ([2]; gene CDC2, probeset 203213_at) was −1.163, the “Fold Change AOS Allergen vs. cPLA2 inhibitor” value [2, 5] was 2.803 and the “Fold Change AOS Allergen vs. cPLA2 inhibitor” value [2, 6] was 2.442. The “Fold Change AOS Allergen vs. cPLA2 inhibitor” value [2, 7] was 2.524, the “Fold Change AOS Allergen vs. cPLA2 inhibitor” value ([2]; gene DUSP4, probeset 204014_at) was −1.393 and the “Fold Change AOS Allergen vs. cPLA2 inhibitor” value [2, 8] was −1.344. The “Fold Change AOS Allergen vs. cPLA2 inhibitor” value [2, 9] was 2.574, the “Fold Change AOS Allergen vs. cPLA2 inhibitor” value [2, 10] was −1.362 and the “Fold Change AOS Allergen vs. cPLA2 inhibitor” value ([2]; gene GM2A, probeset 33646_g_at) was 2.499. For the same compound, the “Fold Change AOS Allergen vs. cPLA2 inhibitor” value ([2]; gene GM2A, probeset 209727_at) was 2.415, the “Fold Change AOS Allergen vs. cPLA2 inhibitor” value [2, 11] was 4.363 and the “Fold Change AOS Allergen vs. cPLA2 inhibitor” value ([2]; gene ME1, probeset 204059_s_at) was 2.986. The “Fold Change AOS Allergen vs. cPLA2 inhibitor” value ([2]; gene MELK, probeset 204825_at) was −1.228, the “Fold Change AOS Allergen vs. cPLA2 inhibitor” value ([2]; gene OIP5, probeset 213599_at) was −1.141 and the “Fold Change AOS Allergen vs. cPLA2 inhibitor” value [2, 12] was 2.162. The “Fold Change AOS Allergen vs. cPLA2 inhibitor” value [2, 13] was 2.51, the “Fold Change AOS Allergen vs. cPLA2 inhibitor” value ([2]; gene POLG, probeset 213007_at) was −1.163 and the “Fold Change AOS Allergen vs. cPLA2 inhibitor” value [2, 14] was −1.167. For the same compound, the “Fold Change AOS Allergen vs. cPLA2 inhibitor” value [2, 15] was −1.215, the “Fold Change AOS Allergen vs. cPLA2 inhibitor” value [2, 16] was 2.385 and the “Fold Change AOS Allergen vs. cPLA2 inhibitor” value [2, 17] was 2.908. For the same compound, the “Fold Change AOS Allergen vs. cPLA2 inhibitor” value [2, 18] was −1.323, the “Fold Change AOS Allergen vs. cPLA2 inhibitor” value [2, 19] was 2.698 and the “Fold Change AOS Allergen vs. cPLA2 inhibitor” value [2, 20] was 2.609. For the same compound, the “Fold Change AOS Allergen vs. cPLA2 inhibitor” value [2, 21] was −1.245, the “Fold Change AOS Allergen vs. cPLA2 inhibitor” value ([2]; gene SN, probeset 219519_s_at) was 4.378 and the “Fold Change AOS Allergen vs. cPLA2 inhibitor” value [2, 22] was −1.358. For the same compound, the “Fold Change AOS Allergen vs. cPLA2 inhibitor” value [2, 23] was −1.203, the “Fold Change AOS Allergen vs. cPLA2 inhibitor” value [2, 24] was −1.167 and the “genes down regulated in response to allergen in Network 1 in the healthy population” value ([3]; allergen + inhibitor, data not shown) was “brought up to non-allergen-stimulated background levels”. The “Fold Change WHV Allergen vs. cPLA2 inhibitor” value [3, 4] was −1.335, the “Fold Change WHV Allergen vs. cPLA2 inhibitor” value ([3]; gene CDC2, probeset 203213_at) was −1.258 and the “Fold Change WHV Allergen vs. cPLA2 inhibitor” value [3, 5] was 2.013. The “Fold Change WHV Allergen vs. cPLA2 inhibitor” value [3, 6] was 1.413, the “Fold Change WHV Allergen vs. cPLA2 inhibitor” value [3, 7] was 1.326 and the “Fold Change WHV Allergen vs. cPLA2 inhibitor” value ([3]; gene DUSP4, probeset 204014_at) was −1.388. The “Fold Change WHV Allergen vs. cPLA2 inhibitor” value [3, 8] was −1.157, the “Fold Change WHV Allergen vs. cPLA2 inhibitor” value [3, 9] was −1.037 and the “Fold Change WHV Allergen vs. cPLA2 inhibitor” value [3, 10] was 1.042. For the same compound, the “Fold Change WHV Allergen vs. cPLA2 inhibitor” value ([3]; gene GM2A, probeset 33646_g_at) was 1.344, the “Fold Change WHV Allergen vs. cPLA2 inhibitor” value ([3]; gene GM2A, probeset 209727_at) was 1.211 and the “Fold Change WHV Allergen vs. cPLA2 inhibitor” value [3, 11] was 1.288. The “Fold Change WHV Allergen vs. cPLA2 inhibitor” value ([3]; gene ME1, probeset 204059_s_at) was 1.518, the “Fold Change WHV Allergen vs. cPLA2 inhibitor” value ([3]; gene MELK, probeset 204825_at) was −1.213 and the “Fold Change WHV Allergen vs. cPLA2 inhibitor” value ([3]; gene OIP5, probeset 213599_at) was −1.067. The “Fold Change WHV Allergen vs. cPLA2 inhibitor” value [3, 12] was 1.13, the “Fold Change WHV Allergen vs. cPLA2 inhibitor” value [3, 13] was 1.277 and the “Fold Change WHV Allergen vs. cPLA2 inhibitor” value ([3]; gene POLG, probeset 213007_at) was −1.337. For the same compound, the “Fold Change WHV Allergen vs. cPLA2 inhibitor” value [3, 14] was −1.108, the “Fold Change WHV Allergen vs. cPLA2 inhibitor” value [3, 15] was −1.144 and the “Fold Change WHV Allergen vs. cPLA2 inhibitor” value [3, 16] was 1.279. The “Fold Change WHV Allergen vs. cPLA2 inhibitor” value [3, 17] was 1.206, the “Fold Change WHV Allergen vs. cPLA2 inhibitor” value [3, 18] was −1.568 and the “Fold Change WHV Allergen vs. cPLA2 inhibitor” value [3, 19] was 1.211. The “Fold Change WHV Allergen vs. cPLA2 inhibitor” value [3, 20] was 1.237, the “Fold Change WHV Allergen vs. cPLA2 inhibitor” value [3, 21] was −1.27 and the “Fold Change WHV Allergen vs. cPLA2 inhibitor” value ([3]; gene SN, probeset 219519_s_at) was 1.618. The “Fold Change WHV Allergen vs. cPLA2 inhibitor” value [3, 22] was −1.317, the “Fold Change WHV Allergen vs. cPLA2 inhibitor” value [3, 23] was −1.29 and the “Fold Change WHV Allergen vs. cPLA2 inhibitor” value [3, 24] was −1.202.
